Assay results reported in PubChem BioAssay (NCI).
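How tested: cells in 96-well plates exposed to compound for 48 hours at five concentrations. TGI: concentration producing complete growth inhibition.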

Columns and labels:
Test in all cases: NCI anticancer screen, dose series, 48 h
[1] = system: A498 renal
[2] = system: A549 NSCLC
[3] = system: ACHN renal
[4] = system: BT-549 breast
[5] = system: CAKI-1 renal
[6] = system: CCRF-CEM leukemia
[7] = system: COLO 205 colon
[8] = system: DU-145 prostate
[9] = system: EKVX NSCLC
[10] = system: HCC-2998 colon
[11] = system: HCT-116 colon
[12] = system: HCT-15 colon
[13] = system: HL-60(TB) leukemia
[14] = system: HOP-62 NSCLC
[15] = system: HOP-92 NSCLC
[16] = system: HS 578T breast
[17] = system: HT29 colon
[18] = system: IGROV1 ovarian
[19] = system: K-562 leukemia
[20] = system: KM12 colon
[21] = system: LOX IMVI melanoma
[22] = system: M14 melanoma
[23] = system: MALME-3M melanoma
[24] = system: MCF7 breast
[25] = system: MDA-MB-231 breast
[26] = system: MDA-MB-435
[27] = system: MDA-N
[28] = system: MOLT-4 leukemia
[29] = system: NCI-H226 lung
[30] = system: NCI-H23 lung
[31] = system: NCI-H460 lung
[32] = system: NCI-H522 lung
[33] = system: NCI/ADR-RES ovarian
[34] = system: OVCAR-3 ovarian
[35] = system: OVCAR-4 ovarian
[36] = system: OVCAR-5 ovarian
[37] = system: OVCAR-8 ovarian
[38] = system: PC-3 prostate
[39] = system: RPMI-8226 leukemia
[40] = system: SF-268 CNS
[41] = system: SF-295 CNS
[42] = system: SF-539 CNS
[43] = system: SK-MEL-2 melanoma
[44] = system: SK-MEL-28 melanoma
[45] = system: SK-MEL-5 melanoma
[46] = system: SK-OV-3 ovarian
[47] = system: SN12C renal
[48] = system: SNB-19 CNS
[49] = system: SNB-75 CNS
[50] = system: SR leukemia
[51] = system: SW-620 colon
[52] = system: T-47D breast
[53] = system: TK-10 renal
[54] = system: U251 CNS
[55] = system: UACC-257 melanoma
[56] = system: UACC-62 melanoma
[57] = system: UO-31 renal
[58] = system: 786-0 renal
[59] = system: RXF 393 renal

C/C(=N\NC(=S)N1CCOCC1)c1nc2ncccc2[nH]1
TGI [1]: > 100 µM | TGI [2]: > 100 µM | TGI [3]: > 100 µM | TGI [4]: > 100 µM | TGI [5]: > 100 µM | TGI [6]: > 100 µM | TGI [7]: > 100 µM | TGI [8]: > 100 µM | TGI [9]: > 100 µM | TGI [10]: > 100 µM | TGI [11]: > 100 µM | TGI [12]: > 100 µM | TGI [13]: > 100 µM | TGI [14]: 96 µM | TGI [15]: 68 µM | TGI [16]: > 100 µM | TGI [17]: > 100 µM | TGI [18]: > 100 µM | TGI [19]: > 100 µM | TGI [20]: > 100 µM | TGI [21]: > 100 µM | TGI [22]: > 100 µM | TGI [23]: > 100 µM | TGI [24]: 80.4 µM | TGI [25]: > 100 µM | TGI [26]: > 100 µM | TGI [27]: > 100 µM | TGI [28]: > 100 µM | TGI [29]: > 100 µM | TGI [30]: > 100 µM | TGI [31]: > 100 µM | TGI [32]: 59.3 µM | TGI [33]: > 100 µM | TGI [34]: > 100 µM | TGI [35]: > 100 µM | TGI [36]: > 100 µM | TGI [37]: 80.2 µM | TGI [38]: > 100 µM | TGI [39]: > 100 µM | TGI [40]: > 100 µM | TGI [41]: 69.6 µM | TGI [42]: 51.4 µM | TGI [43]: 69.4 µM | TGI [44]: > 100 µM | TGI [45]: > 100 µM | TGI [46]: > 100 µM | TGI [47]: > 100 µM | TGI [48]: 84.6 µM | TGI [49]: 44.1 µM | TGI [50]: > 100 µM | TGI [51]: > 100 µM | TGI [52]: > 100 µM | TGI [53]: > 100 µM | TGI [54]: 81.8 µM | TGI [55]: 77.4 µM | TGI [56]: > 100 µM | TGI [57]: 96.2 µM

COc1cc2c(cc1OC)C(=O)N(c1ccc(OCCN3CCCC3)cc1)C2=O
TGI [58]: > 100 µM | TGI [1]: > 100 µM | TGI [2]: > 100 µM | TGI [3]: > 100 µM | TGI [4]: > 100 µM | TGI [5]: > 100 µM | TGI [6]: > 100 µM | TGI [7]: > 100 µM | TGI [8]: > 100 µM | TGI [9]: > 100 µM | TGI [10]: > 100 µM | TGI [11]: > 100 µM | TGI [12]: > 100 µM | TGI [13]: > 100 µM | TGI [14]: > 100 µM | TGI [15]: > 100 µM | TGI [16]: > 100 µM | TGI [17]: > 100 µM | TGI [18]: > 100 µM | TGI [19]: > 100 µM | TGI [20]: > 100 µM | TGI [21]: > 100 µM | TGI [22]: > 100 µM | TGI [23]: > 100 µM | TGI [24]: > 100 µM | TGI [25]: > 100 µM | TGI [26]: > 100 µM | TGI [27]: > 100 µM | TGI [28]: > 100 µM | TGI [29]: > 100 µM | TGI [30]: > 100 µM | TGI [31]: > 100 µM | TGI [32]: > 100 µM | TGI [33]: > 100 µM | TGI [34]: > 100 µM | TGI [35]: > 100 µM | TGI [36]: > 100 µM | TGI [37]: > 100 µM | TGI [38]: > 100 µM | TGI [39]: > 100 µM | TGI [59]: > 100 µM | TGI [40]: > 100 µM | TGI [41]: > 100 µM | TGI [42]: > 100 µM | TGI [43]: > 100 µM | TGI [44]: > 100 µM | TGI [45]: > 100 µM | TGI [46]: > 100 µM | TGI [47]: > 100 µM | TGI [48]: > 100 µM | TGI [50]: > 100 µM | TGI [51]: > 100 µM | TGI [52]: > 100 µM | TGI [53]: > 100 µM | TGI [54]: > 100 µM | TGI [55]: > 100 µM | TGI [56]: > 100 µM
